# Patent US20260123631A1, “NATURAL PORPHIN SALT AND USE THEREOF AS PLANT GROWTH REGULATOR AND PLANT IMMUNITY INDUCER” (NANJING BOSTEC BIOLOGICAL ENGINEERING CO., LTD, priority 2022, published 2026)
# Tests used:
# rice = assay: Rice yield in the leaf blast field experiment; type: in vivo, rice (Nanjing 9108); details: 3 mg/mu sprayed 3 times
# Description: (§1) The experiment was conducted according to experimental specifications in the field efficacy standard of GB/T17980.19-2000. In the experiment, the following two treatments were set: a first treatment: sodium iron chlorin was applied, and a second treatment: a blank control (water) was applied. A test sample was fully dissolved and diluted, and then applied. Based on the characteristics of disease and pest control, an agent was applied once at each of a late tillering stage (Jul. 22, 2021), a jointing-booting stage (Aug. 16, 2021), and a full heading stage (Aug. 30, 2021). […] Water amounts required per mu for the three times were 30 L, 45 L, and 45 L (sample concentrations: 0.1 ppm, 0.067 ppm, and 0.067 ppm), respectively. An area for each treatment was 3 mu. According to a five-point sampling method, 5 sampling points (20 m^2 per sampling point) were set for each treatment. The occurrence of leaf blast in rice was investigated in the field before harvesting.
# The harvesting was conducted on Nov. 8, 2021. On the eve of harvesting, the yield composition and structure were investigated. Then a yield per mu was measured.
# DTA/TG thermal analysis = type: physicochemical; details: nitrogen, 10° C./min, 25° C. to 500° C.
# Description: Test instrument: Shimadzu DTG-60 DTA-TG synchronous analyzer.
# Test samples: Sodium iron chlorin and iron chlorin.
# Reference: Aluminum oxide.
# Heating rate: 10° C./min.
# Heating range: 25° C. to 500° C.
# Sample weight: 4.3 mg to 4.5 mg.
# Analysis software: ta60WS Ver. 2.11.
# Results were shown in FIG. 1, including a DTA comparison chart (the upper part in FIG. 1) and a TG comparison chart (the lower part in FIG. 1) for the samples.
# Phytophthora capsici = assay: Pot experiment: resistance of pepper to phytophthora blight; type: in vivo; details: 2.0 ppm sprayed on pepper seedlings (Sujiao No. 5), inoculated 3 d later
# Description: Preparation of Phytophthora capsici zoospores: Fungal discs were collected at an edge of a newly-activated Phytophthora capsici plate. 6 mm fungal discs were picked with a needle and transferred to an empty Petri dish with a diameter of 9 cm, with fungi facing up and 10 fungal discs for each plate. 15 mL of sterilized water was added to the Petri dish, and the Petri dish was placed in a clean bench under light. The water was changed once every 30 min for 3 times in total. The remaining wastewater was removed by a pipette, and then 10 mL of the V8 liquid medium was added. The Petri dish was incubated in a 25° C. incubator for 24 h in the dark to induce the production of a large number of sporangiospores. Then the Petri dish was placed in a 4° C. refrigerator for 30 min and then incubated in a 25° C. incubator for 30 min, such that a large number of zoospores were released. 10 L of a sample was collected, and observed and counted with a hemocytometer under a microscope. The remaining sample was collected for later use.
# Pepper seedlings at a 4-6 leaf stage were transplanted, with one plant in each pot. […] 3 replicates were set for each treatment, and 18 pots were adopted for each replicate. After the treatment, the observation was conducted regularly once a day. An incidence rate of pepper was recorded, and a disease index and a control efficiency were counted. […]
# leaf blast in rice = assay: Field control of leaf blast in rice; type: in vivo, rice (Nanjing 9108); details: 3 mg/mu sprayed 3 times (0.1, 0.067, 0.067 ppm)
# Description: as §1
# [1] = Stability of sample solutions in the dark/under light; type: physicochemical
# Method in brief: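 Salt in water, or acidic reference in 30–50% aqueous ethanol, at about 10 ppm; UV absorbance scanned 200–800 nm at 0, 1, 2, 3 h, stored at 25° C dark or under 30,000 lux light. Relative content = max-peak absorbance at each time divided by 0 h value (100%).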
# [2] = system: Phytophthora capsici LT263; assay: Inducing resistance of Nicotiana benthamiana leaves to phytophthora blight; type: in vivo; details: inoculated on day 7 and day 10, read 36 h after inoculation
# Description: At 36 h after the inoculation, results were observed.
# chlorophyllase = assay: In vitro chlorophyllase-inhibiting activity test; type: biochemical, mung bean; details: substrate chlorophyll 120 ppm, sample 0.3 ppm to 30.0 ppm
# Description: A chlorophyllase inhibition rate of a salt sample solution at each concentration was determined, and an IC50 value for a chlorophyllase inhibition activity of a salt sample was calculated.
substance,measurement,setting,value
sodium iron chlorin [Example 21],Ear number per mu,rice,"22.40 10,000"
same,Filled grain number per ear,rice,117.39
same,Thousand-grain weight,rice,26.9 g
same,Yield,rice,616.85 kg/mu
same,Yield increase rate,rice; versus water,7.1%
same,thermal stability compared with the acidic sample,DTA/TG thermal analysis,significantly-stronger thermal stability
same,Control effect,Phytophthora capsici,71.89%
same,Disease index,Phytophthora capsici,24.36
same,Average disease index,leaf blast in rice,20.09%
same,Average incidence rate,leaf blast in rice,8.0%
same,Corrected control effect,leaf blast in rice,43.93%
same,Relative content,"[1]; in the dark, 25° C., 0 h",100.0%
same,Relative content,"[1]; in the dark, 25° C., 1 h",99.51%
same,Relative content,"[1]; in the dark, 25° C., 2 h",99.60%
same,Relative content,"[1]; in the dark, 25° C., 3 h",99.43%
same,Relative content,"[1]; under light 30,000 lux, 0 h",100.00%
same,Relative content,"[1]; under light 30,000 lux, 1 h, salts in water, acidic reference in 30% to 50% ethanol",69.35%
same,Relative content,"[1]; under light 30,000 lux, 2 h, salts in water, acidic reference in 30% to 50% ethanol",59.05%
same,Relative content,"[1]; under light 30,000 lux, 3 h, salts in water, acidic reference in 30% to 50% ethanol",54.02%
same,lesion area after LT263 inoculation compared with DDW,[2]; 2.0 ppm injected into leaves,significantly reduce a lesion area
same,lesion area after LT263 inoculation compared with DDW,[2]; 20.0 ppm injected into leaves,significantly reduce a lesion area
same,IC50 for chlorophyllase inhibition activity,chlorophyllase,5.22 ppm
